Test results published in patent US20260001893A1, “SMALL MOLECULE MODULATORS OF STAT6” (Gilead Sciences, Inc., priority 2024, published 2026).

These compounds were tested on Eotaxin-3 (CCL26) release in human whole blood stimulated with IL-4 (assay: Human whole blood eotaxin-3 assay (IL-4 stimulated eotaxin-3 release)). Conditions: Homo sapiens, 48 h, human whole blood stimulated with recombinant human IL-4, 48 h; given for test compounds with <80% Emax; geometric mean.
Type: cell-based
Summary of the method: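 Lithium-heparin human whole blood was preincubated with compound (4-fold serial dilution, 0.5% DMSO final) for 2 h at 37° C, then stimulated with recombinant human IL-4 at […] final for 48 h. Eotaxin-3 (CCL26) in the supernatant was measured by MSD immunoassay.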

In the case of `[2H]C([2H])([2H])N(C(=O)c1ccc(C2CCN([C@@H](C)c3cc4c(-n5c(F)cc(NC)cc5=O)ccnc4n3C)CC2)cc1)C([2H])([2H])[2H]` [Example 1m97, 4-(1-((1S)-1-(4-(6-fluoro-4-(methylamino)-2-oxopyridin-1 (2H)-yl)-1-methyl-1H-pyrrolo[2,3-b]pyridin-2-yl)ethyl)piperidin-4-yl)-N,N-bis(methyl-d3)benzamide], the Emax is reported as 10 to 20%.

Same assay, conditions: Homo sapiens, 48 h, human whole blood stimulated with recombinant human IL-4, 48 h; inhibition of eotaxin-3 release; given for test compounds with >80% Emax; geometric mean

First: [2H]C([2H])([2H])N(C(=O)c1cc(C)c(C2=CCN(Cc3cc4c(-n5ccc(NC)nc5=O)ccnc4n3C)CC2)c(F)c1)C([2H])([2H])[2H] [Example 1m96, 3-fluoro-5-methyl-N,N-bis(methyl-d3)-4-(1-((1-methyl-4-(4-(methylamino)-2-oxopyrimidin-1 (2H)-yl)-1H-pyrrolo[2,3-b]pyridin-2-yl)methyl)-1,2,3,6-tetrahydropyridin-4-yl)benzamide]
Second: [2H]C([2H])([2H])N(C(=O)c1cc(C)c(C2=CCN(Cc3cc4c(-n5ccc(NC)c(C)c5=O)ccnc4n3C)CC2)c(F)c1)C([2H])([2H])[2H] [Example 1m114, 3-fluoro-5-methyl-N,N-bis(methyl-d3)-4-(1-((1-methyl-4-(3-methyl-4-(methylamino)-2-oxopyridin-1 (2H)-yl)-1H-pyrrolo[2,3-b]pyridin-2-yl)methyl)-1,2,3,6-tetrahydropyridin-4-yl)-benzamide]
The EC50 of the first is 53-fold lower: 3.52 nM for the first, 185 nM for the second.

`[2H]C([2H])([2H])N(C(=O)c1cc(F)c(C2=CCN(Cc3cc4c(-n5ccc(NC)cc5=O)ccnc4n3C)CC2)c(F)c1)C([2H])([2H])[2H]` [Example 1m98, 3,5-difluoro-N,N-bis(methyl-d3)-4-(1-((1-methyl-4-(4-(methylamino)-2-oxopyridin-1 (2H)-yl)-1H-pyrrolo[2,3-b]pyridin-2-yl)methyl)-1,2,3,6-tetrahydropyridin-4-yl)benzamide] and `[2H]C([2H])([2H])N(C(=O)c1cc(F)c(C2=CCN(Cc3cc4c(-n5ccc6c(c5=O)CCN6)ccnc4n3C)CC2)c(F)c1)C([2H])([2H])[2H]` [Example 1m115, 3,5-difluoro-N,N-bis(methyl-d3)-4-(1-((1-methyl-4-(4-oxo-1,2,3,4-tetrahydro-5H-pyrrolo[3,2-c]pyridin-5-yl)-1H-pyrrolo[2,3-b]pyridin-2-yl)methyl)-1,2,3,6-tetrahydropyridin-4-yl)benzamide] are within 1.5-fold of each other in EC50: 22.4 nM for the first, 20.4 nM for the second.

Compared with `Cc1cc(C(=O)N(C)C)cc(F)c1C1=CCN(Cc2cc3c(-n4ccc5c(c4=O)CCN5)ccnc3n2C)CC1` [Example 1m101, 3-fluoro-N,N,5-trimethyl-4-(1-((1-methyl-4-(4-oxo-1,2,3,4-tetrahydro-5H-pyrrolo[3,2-c]pyridin-5-yl)-1H-pyrrolo[2,3-b]pyridin-2-yl)methyl)-1,2,3,6-tetrahydropyridin-4-yl)benzamide], `CN(C)C(=O)c1cc(F)c(C2=CCN(Cc3cc4c(-n5ccc6c(c5=O)CCN6)ccnc4n3C)CC2)c(F)c1` [Example 1m107, 3,5-difluoro-N,N-dimethyl-4-(1-((1-methyl-4-(4-oxo-1,2,3,4-tetrahydro-5H-pyrrolo[3,2-c]pyridin-5-yl)-1H-pyrrolo[2,3-b]pyridin-2-yl)methyl)-1,2,3,6-tetrahydropyridin-4-yl)benzamide] is 8-fold higher in EC50: 3.02 nM for the first, 24.2 nM for the second.

`[2H]C([2H])([2H])N(C(=O)c1cc(F)c(C2CCN(Cc3cc4c(-n5ccc(NC)cc5=O)ccnc4n3C)CC2)c(F)c1)C([2H])([2H])[2H]` [Example 1m102, 3,5-difluoro-N,N-bis(methyl-d3)-4-(1-((1-methyl-4-(4-(methylamino)-2-oxopyridin-1 (2H)-yl)-1H-pyrrolo[2,3-b]pyridin-2-yl)methyl)piperidin-4-yl)benzamide] and `[2H]C([2H])([2H])N(C(=O)c1cc(F)c(C2CCN(Cc3cc4c(-n5ccc6c(c5=O)CCN6)ccnc4n3C)CC2)c(F)c1)C([2H])([2H])[2H]` [Example 1m117, 3,5-difluoro-N,N-bis(methyl-d3)-4-(1-((1-methyl-4-(4-oxo-1,2,3,4-tetrahydro-5H-pyrrolo[3,2-c]pyridin-5-yl)-1H-pyrrolo[2,3-b]pyridin-2-yl)methyl)piperidin-4-yl)benzamide] are within 1.5-fold of each other in EC50: 23.4 nM for the first, 24.8 nM for the second.

First: Cc1cc(C(=O)N(C)C)cc(F)c1C1CCN(Cc2cc3c(-n4ccc5c(c4=O)CCN5)ccnc3n2C)CC1 [Example 1m103, 3-fluoro-N,N,5-trimethyl-4-(1-((1-methyl-4-(4-oxo-1,2,3,4-tetrahydro-5H-pyrrolo[3,2-c]pyridin-5-yl)-1H-pyrrolo[2,3-b]pyridin-2-yl)methyl)piperidin-4-yl)benzamide]
Second: CN(C)C(=O)c1cc(F)c(C2CCN(Cc3cc4c(-n5ccc6c(c5=O)CCN6)ccnc4n3C)CC2)c(F)c1 [Example 1m110, 3,5-difluoro-N,N-dimethyl-4-(1-((1-methyl-4-(4-oxo-1,2,3,4-tetrahydro-5H-pyrrolo[3,2-c]pyridin-5-yl)-1H-pyrrolo[2,3-b]pyridin-2-yl)methyl)piperidin-4-yl)benzamide]
The EC50 of the first is 1.8-fold higher: 27.1 nM for the first, 15.1 nM for the second.

First: CNc1ccn(-c2ccnc3c2cc(CN2CC=C(c4c(C)cc(C(=O)N(C)C)cc4F)CC2)n3C)c(=O)c1C [Example 1m104, 3-fluoro-N,N,5-trimethyl-4-(1-((1-methyl-4-(3-methyl-4-(methylamino)-2-oxopyridin-1 (2H)-yl)-1H-pyrrolo[2,3-b]pyridin-2-yl)methyl)-1,2,3,6-tetrahydropyridin-4-yl)benzamide]
Second: CNc1cc(=O)n(-c2ccnc3c2cc([C@H](C)N2CC=C(c4c(C)cc(C(=O)N(C)C)cc4F)CC2)n3C)cc1F [Example 1m124, (S)-3-fluoro-4-(1-(1-(4-(5-fluoro-4-(methylamino)-2-oxopyridin-1 (2H)-yl)-1-methyl-1H-pyrrolo[2,3-b]pyridin-2-yl)ethyl)-1,2,3,6-tetrahydropyridin-4-yl)-N,N,5-trimethylbenzamide]
The EC50 of the first is 21-fold higher: 156 nM for the first, 7.6 nM for the second.

First: CNc1ccn(-c2ccnc3c2cc([C@H](C)N2CC=C(c4c(C)cc(C(=O)N(C)C)cc4F)CC2)n3C)c(=O)n1 [Example 1m106, (S)-3-fluoro-N,N,5-trimethyl-4-(1-(1-(1-methyl-4-(4-(methylamino)-2-oxopyrimidin-1 (2H)-yl)-1H-pyrrolo[2,3-b]pyridin-2-yl)ethyl)-1,2,3,6-tetrahydropyridin-4-yl)benzamide]
Second: Cc1cc(C(=O)N(C)C)cc(F)c1C1=CCN([C@@H](C)c2cc3c(-n4cc(F)c(N)cc4=O)ccnc3n2C)CC1 [Example 1m111, (S)-4-(1-(1-(4-(4-amino-5-fluoro-2-oxopyridin-1 (2H)-yl)-1-methyl-1H-pyrrolo[2,3-b]pyridin-2-yl)ethyl)-1,2,3,6-tetrahydropyridin-4-yl)-3-fluoro-N,N,5-trimethylbenzamide]
The EC50 of the first is 2.4-fold lower: 2.96 nM for the first, 6.98 nM for the second.

Going from `CNc1ccn(-c2ccnc3c2cc([C@@H](C)N2CCC(c4c(C)cc(C(=O)N(C)C)cc4F)CC2)n3C)c(=O)c1` [Example 1m108, (R)-3-fluoro-N,N,5-trimethyl-4-(1-(1-(1-methyl-4-(4-(methylamino)-2-oxopyridin-1 (2H)-yl)-1H-pyrrolo[2,3-b]pyridin-2-yl)ethyl)piperidin-4-yl)benzamide] to `CNc1ccn(-c2ccnc3c2cc([C@H](C)N2CCC(c4c(C)cc(C(=O)N(C)C)cc4F)CC2)n3C)c(=O)c1` [Example 1m109, (S)-3-fluoro-N,N,5-trimethyl-4-(1-(1-(1-methyl-4-(4-(methylamino)-2-oxopyridin-1 (2H)-yl)-1H-pyrrolo[2,3-b]pyridin-2-yl)ethyl)piperidin-4-yl)benzamide], the EC50 falls from 317 nM to 10.8 nM (29-fold). The second is the more potent here.

First: CN(C)C(=O)c1ccc(C2=CCN(Cc3cc4c(-n5ccc6c(c5=O)CCN6)ccnc4n3C)CC2)c(C2CC2)c1 [Example 1m113, cyclopropyl-N-dimethyl-4-(1-((1-methyl-4-(4-oxo-1,2,3,4-tetrahydro-5H-pyrrolo[3,2-c]pyridin-5-yl)-1H-pyrrolo[2,3-b]pyridin-2-yl)methyl)-1,2,3,6-tetrahydropyridin-4-yl)benzamide]
Second: C[C@@H](c1cc2c(-n3ccc4c(c3=O)CCN4)ccnc2n1C)N1CC=C(c2c(F)cc(C(=O)N(C)C)cc2F)CC1 [Example 1m122, (S)-3,5-difluoro-N,N-dimethyl-4-(1-(1-(1-methyl-4-(4-oxo-1,2,3,4-tetrahydro-5H-pyrrolo[3,2-c]pyridin-5-yl)-1H-pyrrolo[2,3-b]pyridin-2-yl)ethyl)-1,2,3,6-tetrahydropyridin-4-yl)benzamide]
The EC50 of the first is 2.6-fold higher: 30 nM for the first, 11.5 nM for the second.

Compared with `CNc1ccn(-c2ccnc3c2cc(CN2CCC(c4c(F)cc(C(=O)N(C)C)cc4F)CC2)n3C)c(=O)c1F` [Example 1m116, 3,5-difluoro-4-(1-((4-(3-fluoro-4-(methylamino)-2-oxopyridin-1 (2H)-yl)-1-methyl-1H-pyrrolo[2,3-b]pyridin-2-yl)methyl)piperidin-4-yl)-N,N-dimethylbenzamide], `CN(C)C(=O)c1cc(F)c(C2CCN(Cc3cc4c(-n5cc(F)c(N)c(F)c5=O)ccnc4n3C)CC2)c(F)c1` [Example 1m119, 4-(1-((4-(4-amino-3,5-difluoro-2-oxopyridin-1 (2H)-yl)-1-methyl-1H-pyrrolo[2,3-b]pyridin-2-yl)methyl)piperidin-4-yl)-3,5-difluoro-N,N-dimethylbenzamide] is 6.3-fold lower in EC50: 229 nM for the first, 36.4 nM for the second.

First: CNc1nc(=O)n(-c2ccnc3c2cc(CN2CCC(c4c(F)cc(C(=O)N(C)C)cc4F)CC2)n3C)cc1F [Example 1m118, 3,5-difluoro-4-(1-((4-(5-fluoro-4-(methylamino)-2-oxopyrimidin-1 (2H)-yl)-1-methyl-1H-pyrrolo[2,3-b]pyridin-2-yl)methyl)piperidin-4-yl)-N,N-dimethylbenzamide]
Second: C[C@H](c1cc2c(-n3ccc4c(c3=O)CCN4)ccnc2n1C)N1CC=C(c2c(F)cc(C(=O)N(C)C)cc2F)CC1 [Example 1m123, (R)-3,5-difluoro-N,N-dimethyl-4-(1-(1-(1-methyl-4-(4-oxo-1,2,3,4-tetrahydro-5H-pyrrolo[3,2-c]pyridin-5-yl)-1H-pyrrolo[2,3-b]pyridin-2-yl)ethyl)-1,2,3,6-tetrahydropyridin-4-yl)benzamide]
The EC50 of the first is 3.8-fold lower: 55.2 nM for the first, 211 nM for the second.
